Laboratory results from patent US8263606B2 (Xenon Pharmaceuticals Inc., priority 2008, dated 2012).

What was measured:
sodium channel = test: Guanidine influx assay (14C-guanidine radiotracer flux, in vitro); type: cell-based, human or rat; settings: guanidine influx assay using a known cell line that expresses a sodium channel; activity level class
Outline: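 Aconitine holds channels open while 14C-guanidine enters human or rat sodium-channel-expressing cells in choline-substituted low-sodium saline, with test agent present at ambient temperature. Retained tracer is scintillation-counted and IC50 fitted by a four-parameter logistic model.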

CYP3A4 = CYP3A4 (Homo sapiens, UniProt P08684); test: Cytochrome P450 (CYP450) Inhibition Assay, CYP3A4 (Vivid fluorescence, BOMCC substrate); settings: human, P450 Baculosomes (recombinant CYP3A4), probe BOMCC (Vivid substrate)
CYP3A4, sequence (P08684 whole entry): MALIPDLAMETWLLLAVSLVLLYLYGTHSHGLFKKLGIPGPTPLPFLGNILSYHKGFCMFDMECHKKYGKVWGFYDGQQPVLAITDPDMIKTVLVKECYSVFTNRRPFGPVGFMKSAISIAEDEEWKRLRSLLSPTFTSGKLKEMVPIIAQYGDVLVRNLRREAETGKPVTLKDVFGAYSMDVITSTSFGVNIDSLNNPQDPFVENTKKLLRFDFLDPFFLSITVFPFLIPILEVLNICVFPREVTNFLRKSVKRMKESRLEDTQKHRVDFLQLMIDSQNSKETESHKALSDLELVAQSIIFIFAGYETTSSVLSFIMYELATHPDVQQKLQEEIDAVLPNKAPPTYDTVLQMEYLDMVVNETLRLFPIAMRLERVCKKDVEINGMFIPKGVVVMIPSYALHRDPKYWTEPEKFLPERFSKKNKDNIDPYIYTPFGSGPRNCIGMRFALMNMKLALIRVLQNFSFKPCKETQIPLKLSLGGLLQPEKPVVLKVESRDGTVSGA

| melting point [°C] | IC50 (sodium channel) [µM] | inhibition at 10 µM (CYP3A4) [%] | SMILES |
| --- | --- | --- | --- |
| 186 to 187 | 1 to 10 | < 50 | Cn1c(=O)oc2cc3c(cc21)OCC31C(=O)N(C[C@H]2CCCO2)c2ccccc21 (stereo partly drawn) [Example 8.14, 3-methyl-1′-(((R)-tetrahydrofuran-2-yl)methyl)-2H-spiro[benzofuro[6,5-d]oxazole-7,3′-indoline]-2,2′(3H,6H)-dione] |
| 205 to 207 | 0.001 to 0.1 | < 50 | O=C1N(Cc2ccccn2)c2c(F)cccc2C12COc1cc3c(cc12)OCCO3 (stereo not drawn) [Example 8.15, 7′-fluoro-1′-(pyridin-2-ylmethyl)-3,7-dihydro-2H-spiro[benzofuro[5,6-b][1,4]dioxine-8,3′-indolin]-2′-one] |
| 241 to 243 | 0.001 to 0.1 | < 50 | O=C1N(Cc2ncccc2C(F)(F)F)c2c(F)cccc2C12COc1cc3c(cc12)OCCO3 (stereo not drawn) [Example 8.16, 7′-fluoro-1-((3-(trifluoromethyl)pyridin-2-yl)methyl)-3,7-dihydro-2H-spiro[benzofuro[5,6-b][1,4]dioxine-8,3′-indolin]-2′-one] |
| 191 to 193 | 0.001 to 0.1 | < 50 | O=C1N(Cc2ccccc2C(F)F)c2ccccc2C12COc1cc3c(cc12)OCCO3 (stereo not drawn) [Example 8.17] |
| 197 to 200 | 0.001 to 0.1 | < 50 | O=C1N(Cc2cncc(F)c2)c2ccccc2[C@]12COc1cc3c(cc12)OCCO3 [Example 8.19, (8S)-1′-[(5-fluoropyridin-3-yl)methyl]-2,3-dihydrospiro[furo[2,3-g][1,4]benzodioxine-8,3′-indol]-2′(1′H)-one] |
| 105 to 107 | 0.1 to 1 | > 50 | COCCOCCN1C(=O)C2(COc3cc4c(cc32)CCO4)c2ccccc21 (stereo not drawn) [Example 9.1, 1′-[2-(2-methoxyethoxy)ethyl]-5,6-dihydrospiro[benzo[1,2-b:5,4-b′]difuran-3,3′-indol]-2′(1′H)-one] |
| 133 to 136 | 1 to 10 | < 50 | O=C1CC[C@@H](CN2C(=O)C3(COc4cc5c(cc43)CCO5)c3ccccc32)N1 (stereo partly drawn) [Example 9.2, 1′-{[(2S)-5-oxopyrrolidin-2-yl]methyl}-5,6-dihydrospiro[benzo[1,2-b:5,4-b′]difuran-3,3′-indol]-2′(1′H)-one] |
| 185 to 186 | 1 to 10 | > 50 | O=C1OCCN1CCN1C(=O)C2(COc3cc4c(cc32)CCO4)c2ccccc21 (stereo not drawn) [Example 9.3, 1′-[2-(2-oxo-1,3-oxazolidin-3-yl)ethyl]-5,6-dihydrospiro[benzo[1,2-b:5,4-b′]difuran-3,3′-indol]-2′(1′H)-one] |
| 217 to 219 | 0.1 to 1 | < 50 | O=C1N(Cc2ccc(-c3ccccn3)cc2)c2ccccc2C12COc1cc3c(cc12)CCO3 (stereo not drawn) [Example 9.4, 1-(4-pyridin-2-ylbenzyl)-5,6-dihydrospiro[benzo[1,2-b:5,4-b′]difuran-3,3′-indol]-2′(1′H)-one] |
| 203 to 205 | 0.001 to 0.1 | < 50 | O=C1N(Cc2ncccn2)c2ccccc2C12COc1cc3c(cc12)CCO3 (stereo not drawn) [Example 9.5, 1′-(pyrimidin-2-ylmethyl)-5,6-dihydrospiro[benzo[1,2-b:5,4-b′]difuran-3,3′-indol]-2′(1′H)-one] |
| 143 to 144 | 0.001 to 0.1 | < 50 | O=C1N(Cc2cnccn2)c2ccccc2C12COc1cc3c(cc12)CCO3 (stereo not drawn) [Example 9.7, 1′-(pyrazin-2-ylmethyl)-5,6-dihydrospiro[benzo[1,2-b:5,4-b′]difuran-3,3′-indol]-2′(1′H)-one] |
| 192 to 193 | 0.001 to 0.1 | > 50 | O=C1N(Cc2cc3cccc(F)c3o2)c2ccccc2C12COc1cc3c(cc12)CCO3 (stereo not drawn) [Example 9.8, 1′-[(7-fluoro-1-benzofuran-2-yl)methyl]-5,6-dihydrospiro[benzo[1,2-b:5,4-b′]difuran-3,3′-indol]-2′(1′H)-one] |
| 81 to 82 | 0.1 to 1 | < 50 | O=C1N(Cc2cccnn2)c2ccccc2C12COc1cc3c(cc12)CCO3 (stereo not drawn) [Example 9.9, 1′-(pyridazin-3-ylmethyl)-5,6-dihydrospiro[benzo[1,2-b:5,4-b′]difuran-3,3′-indol]-2′(1′H)-one] |
| 197 to 198 | 1 to 10 | < 50 | O=C1NCC(CN2C(=O)C3(COc4cc5c(cc43)CCO5)c3ccccc32)O1 (stereo not drawn) [Example 9.10, 1′-[(2-oxo-1,3-oxazolidin-5-yl)methyl]-5,6-dihydrospiro[benzo[1,2-b:5,4-b′]difuran-3,3′-indol]-2′(1′H)-one] |
| 66 to 68 | 0.1 to 1 | < 50 | O=C1N(Cc2cccc(OCc3ccccc3)c2)c2ccccc2C12COc1cc3c(cc12)CCO3 (stereo not drawn) [Example 9.11, 1′-[3-(benzyloxy)benzyl]-5,6-dihydrospiro[benzo[1,2-b:5,4-b′]difuran-3,3′-indol]-2′(1′H)-one] |
| 244 to 246 | 0.1 to 1 | > 50 | Cn1c(CN2C(=O)C3(COc4cc5c(cc43)CCO5)c3ccccc32)nc2ccccc21 (stereo not drawn) [Example 9.12, 1′-[(1-methyl-1H-benzimidazol-2-yl)methyl]-5,6-dihydrospiro[benzo[1,2-b:5,4-b′]difuran-3,3′-indol]-2′(1′H)-one] |
| 102 to 105 | 0.001 to 0.1 | > 50 | O=C1N(Cn2nc3ccccc3n2)c2ccccc2C12COc1cc3c(cc12)CCO3 (stereo not drawn) [Example 9.13, 1′-(2H-benzotriazol-2-ylmethyl)-5,6-dihydrospiro[benzo[1,2-b:5,4-b′]difuran-3,3′-indol]-2′(1′H)-one] |
| 97 to 98 | 0.001 to 0.1 | > 50 | COC(=O)c1cccc(CN2C(=O)C3(COc4cc5c(cc43)CCO5)c3ccccc32)c1 (stereo not drawn) [Example 9.15, methyl 3-[(2′-oxo-5,6-dihydrospiro[benzo[1,2-b:5,4-b′]difuran-3,3′-indol]-1′(2′H)-yl)methyl]benzoate] |
| 136 to 140 | 0.001 to 0.1 | < 50 | COC(=O)c1ccc(CN2C(=O)C3(COc4cc5c(cc43)CCO5)c3ccccc32)cc1 (stereo not drawn) [Example 9.16, methyl 4-[(2′-oxo-5,6-dihydrospiro[benzo[1,2-b:5,4-b′]difuran-3,3′-indol]-1′(2′H)-yl)methyl]benzoate] |
| 112 to 113 | 0.1 to 1 | > 50 | O=C1N(CCCOCc2ccccc2)c2ccccc2C12COc1cc3c(cc12)CCO3 (stereo not drawn) [Example 9.17, 1′-[3-(benzyloxy)propyl]-5,6-dihydrospiro[benzo[1,2-b:5,4-b′]difuran-3,3′-indol]-2′(1′H)-one] |
| 167 to 169 | 0.1 to 1 | > 50 | O=C1N(C[C@H]2CCCO2)c2ccc(F)cc2C12COc1cc3c(cc12)CCO3 (stereo partly drawn) [Example 9.18, 5′-fluoro-1′-[(2R)-tetrahydrofuran-2-ylmethyl]-5,6-dihydrospiro[benzo[1,2-b:5,4-b′]difuran-3,3′-indol]-2′(1′H)-one] |
| 137 to 139 | 0.1 to 1 | < 50 | O=C1N(C[C@H]2CCCO2)c2cc(F)ccc2C12COc1cc3c(cc12)CCO3 (stereo partly drawn) [Example 9.19, 6′-fluoro-1′-[(2R)-tetrahydrofuran-2-ylmethyl]-5,6-dihydrospiro[benzo[1,2-b:5,4-b′]difuran-3,3′-indol]-2′(1′H)-one] |
| 249 to 250 | 1 to 10 | < 50 | Cc1nc2cc3c(cc2s1)C1(CO3)C(=O)N(Cc2ccccn2)c2ccccc21 (stereo not drawn) [Example 9.21, 2-methyl-1′-(pyridin-2-ylmethyl)spiro[furo[2,3-f][1,3]benzothiazole-7,3′-indol]-2′(1′H)-one] |
| 177 to 178 | 1 to 10 | > 50 | Cc1nc2cc3c(cc2s1)C1(CO3)C(=O)N(Cc2ncc(Cl)n2C)c2ccccc21 (stereo not drawn) [Example 9.22, 1′-[(5-chloro-1-methyl-1H-imidazol-2-yl)methyl]-2-methylspiro[furo[2,3-f][1,3]benzothiazole-7,3′-indol]-2′(1′H)-one] |
| 176 to 177 | 0.001 to 0.1 | > 50 | Cc1noc2cc3c(cc12)C1(CO3)C(=O)N(Cc2cccnc2)c2ccccc21 (stereo not drawn) [Example 9.25, 3-methyl-1′-(pyridin-3-ylmethyl)spiro[furo[3,2-f][1,2]benzisoxazole-5,3′-indol]-2′(1′H)-one] |
| 134 to 135 | 0.1 to 1 | < 50 | Cc1noc2cc3c(cc12)C1(CO3)C(=O)N(C[C@H]2CCCO2)c2ccccc21 (stereo partly drawn) [Example 9.26, 3-methyl-1′-[(2R)-tetrahydrofuran-2-ylmethyl]spiro[furo[3,2-f][1,2]benzisoxazole-5,3′-indol]-2′(1′H)-one] |
| 199 to 201 | 1 to 10 | > 50 | Cc1cc2c(cc1C)C1(CO2)C(=O)N(CC2CCOCC2)c2ccccc21 (stereo not drawn) [Example 9.27, 5,6-dimethyl-1′-(tetrahydro-2H-pyran-4-ylmethyl)spiro[1-benzofuran-3,3′-indol]-2′(1′H)-one] |
| 165 to 168 | 0.1 to 1 | < 50 | Cc1cc2c(cc1C)C1(CO2)C(=O)N(Cc2ccccn2)c2ccccc21 (stereo not drawn) [Example 9.28, 5,6-dimethyl-1′-(pyridin-2-ylmethyl)spiro[1-benzofuran-3,3′-indol]-2′(1′H)-one] |
